# Assay results from patent publication US20260285871A1, “Polymorphic Compounds and Uses Thereof” (TYRA BIOSCIENCES, INC., priority 2022, published 2026).
# Assay: Crystallization (polymorph) studies of compound A free base: fast/slow evaporation, slurry at 25° C., anti-solvent addition, vapor diffusion; solids analysed by XRPD
# Type: physicochemical
# Details: for FE: fast evaporative crystallization; for Results from Slow Evaporation Crystallization Experiments: slow evaporation at room temperature; for Slurry: slurry at 25° C., three days
# Method: (§1) I. Fast Evaporative Crystallization Method (FE): compound A (ca. 30 mg) was dissolved in minimum quantity the stated solvent while heating at 80° C. The resulted solutions were filtered using a 0.45 μm PTFE syringe filter and the filtrate was collected. The filtrate was evaporated using a rotavap.
# as §1, with “II. Slow” for “I. Fast”, “(SE):” for “(FE):”, “covered with perforated aluminum foil and left to evaporate at ambient temperature.” for “evaporated using a rotavap.”
# III. Slurry Crystallization at 25° C. using Form I of compound A: compound A (ca. 100 mg) was suspended in minimum quantity the stated solvent. The resulted slurries were allowed to stir at 25° C. for three days.
# IV. Anti-Solvent Addition Crystallization: compound A (ca. 50 mg) was dissolved in solubilizing solvent. To that solution 200 μL anti-solvent was added slowly. These iterations were continued until the precipitation observed or maximum solvent quantity of ~25 mL. Many solvents were used as the solubilizing solvent in these experiments. Selection of anti-solvent for each solubilizing solvent is based on the miscibility between them.
# V. Vapor Diffusion Crystallization: compound A (ca. 30 mg) was dissolved in solubilizing solvent and kept in a small (8 mL) vial. These vials were kept in a larger vial (40 mL) that had 15 mL anti-solvents and closed the vial cap to allow vapor diffusion between them. Many solvents were used as the solubilizing solvent in these experiments. Selection of anti-solvent for each solubilizing solvent is based on the miscibility between them. All the experiments were kept in undisturbed laboratory bench and observed periodically to see if any crystals were grown during that time.
# Compound A was slurred in respective solvents and stirred at 25° C. for three days. A total of five unique XRPD patterns were identified and designated as Form I, Form II, Form III, Form IV, and Form V.
# Compound A was dissolved in a suitable solvent while heating up to 80° C. and the resultant solutions were allowed to slowly evaporate at room temperature (25° C.).
# Compound A was dissolved in suitable solvents. To those solutions anti-solvents were added to obtain the solids. The solvent and anti-solvent selection was based on the solubility of compound A and also miscibility between them.
# [1] = solvent 14DOX, anti-solvent DEE
# [2] = solvent 14DOX, anti-solvent T-Butyl Methyl Ether
# [3] = solvent CHCl3, anti-solvent 4-Me-2Pentanone
# [4] = solvent CHCl3, anti-solvent DEE
# [5] = solvent CHCl3, anti-solvent T-Butyl Methyl Ether
# [6] = solvent DCM, anti-solvent 4-Me-2Pentanone
# [7] = solvent DCM, anti-solvent T-Butyl Methyl Ether
# [8] = solvent DMSO, anti-solvent Water
# [9] = solvent EtOAc, anti-solvent 4-Me-2Pentanone
# [10] = solvent EtOAc, anti-solvent DEE
# [11] = solvent EtOAc, anti-solvent T-Butyl Methyl Ether
# [12] = solvent EtOH, anti-solvent 4-Me-2Pentanone
# [13] = solvent EtOH, anti-solvent T-Butyl Methyl Ether
# [14] = solvent EtOH, anti-solvent Water
# [15] = solvent IPA, anti-solvent 4-Me-2Pentanone
# [16] = solvent IPA, anti-solvent T-Butyl Methyl Ether
# [17] = solvent MeOH, anti-solvent 4-Me-2Pentanone
# [18] = solvent MeOH, anti-solvent T-Butyl Methyl Ether
# [19] = solvent MeOH, anti-solvent Water
# [20] = solvent THF, anti-solvent 4-Me-2Pentanone
# [21] = solvent THF, anti-solvent T-Butyl Methyl Ether
# [22] = solvent THF, anti-solvent Water
smiles,measurement,setting,value
"C[C@@H](Oc1ccc2[nH]nc(-c3ccc(N4CC5(C4)CN(S(C)(=O)=O)C5)nc3)c2c1)c1c(Cl)cncc1Cl [Compound A, 5-[(1R)-1-(3,5-dichloro-4-pyridyl)ethoxy]-3-[6-(2-methylsulfonyl-2,6-diazaspiro[3.3]heptan-6-yl)-3-pyridyl]-1H-indazole]",FE,solvent 4-Me 2-Pentanone,Not Dissolved
same,FE,solvent ACN,Form II
same,FE,solvent Acetone,Form II
same,FE,solvent CHCl3,Clear film
same,FE,solvent DEE,Not Dissolved
same,FE,solvent EtOAc,Form VIII
same,FE,solvent EtOH,Form IV
same,FE,solvent H2O,Not Dissolved
same,FE,solvent IPA,Form IV
same,FE,solvent MeOH,Form IV
same,FE,solvent THF,Clear film
same,FE,solvent tert-butyl methyl ether,Not Dissolved
same,Results from Slow Evaporation Crystallization Experiments,"solvent 1,2-Propdiol",Form IV
same,Results from Slow Evaporation Crystallization Experiments,solvent 4-Me 2-Pentanone,Form I
same,Results from Slow Evaporation Crystallization Experiments,solvent ACN,Form IV
same,Results from Slow Evaporation Crystallization Experiments,solvent Acetone,Form IV and 5
same,Results from Slow Evaporation Crystallization Experiments,solvent DCM,Form IV
same,Results from Slow Evaporation Crystallization Experiments,solvent DEE,Form I
same,Results from Slow Evaporation Crystallization Experiments,solvent DMF,Form IV
same,Results from Slow Evaporation Crystallization Experiments,solvent DMSO,Form IV
same,Results from Slow Evaporation Crystallization Experiments,solvent EtOAc,Form IV
same,Results from Slow Evaporation Crystallization Experiments,solvent EtOH,Form IV
same,Results from Slow Evaporation Crystallization Experiments,solvent Eth. Gly,Form IV
same,Results from Slow Evaporation Crystallization Experiments,solvent H2O,Form I
same,Results from Slow Evaporation Crystallization Experiments,solvent IPA,Form IV
same,Results from Slow Evaporation Crystallization Experiments,solvent MeOH,Form II
same,Results from Slow Evaporation Crystallization Experiments,solvent T-ButylMethEther,Form I
same,Results from Slow Evaporation Crystallization Experiments,solvent THF,Form IV
same,Slurry,"solvent 1,2-Propdiol",Form I
same,Slurry,solvent 4-Me 2-Pentanone,Form I
same,Slurry,solvent 14DOX,Form VI
same,Slurry,solvent ACN,Form III
same,Slurry,solvent Acetone,Form II
same,Slurry,solvent CHCl3,Form III
same,Slurry,solvent DCM,Form II
same,Slurry,solvent DEE,Form I
same,Slurry,solvent DMF,Form VII
same,Slurry,solvent EtOAc,Form I
same,Slurry,solvent EtOH,Form I
same,Slurry,solvent Eth. Gly,Form I
same,Slurry,solvent H2O,Form I
same,Slurry,solvent IPA,Form I
same,Slurry,solvent MeOH,Form II
same,Slurry,solvent T-ButylMethEther,Form I
same,Slurry,solvent THF,Form III
same,Results of Anti-Solvent Addition Studies,"solvent 14DOX, anti-solvent 4-Me-2Pentanone",No XRPD -
same,Results of Anti-Solvent Addition Studies,[1],Form II
same,Results of Vapor Diffusion Studies,[1],Form VIII
same,Results of Anti-Solvent Addition Studies,[2],Form I
same,Results of Vapor Diffusion Studies,[2],Form VIII
same,Results of Anti-Solvent Addition Studies,"solvent 14DOX, anti-solvent Water",Form V
same,Results of Anti-Solvent Addition Studies,"solvent ACN, anti-solvent 4-Me-2Pentanone",No XRPD -
same,Results of Anti-Solvent Addition Studies,"solvent ACN, anti-solvent DEE",No XRPD -
same,Results of Anti-Solvent Addition Studies,"solvent ACN, anti-solvent T-Butyl Methyl Ether",Form IV
same,Results of Anti-Solvent Addition Studies,"solvent ACN, anti-solvent Water",Form V +
same,Results of Anti-Solvent Addition Studies,"solvent Acetone, anti-solvent 4-Me-2Pentanone",No XRPD -
same,Results of Anti-Solvent Addition Studies,"solvent Acetone, anti-solvent DEE",Form II
same,Results of Anti-Solvent Addition Studies,"solvent Acetone, anti-solvent T-Butyl Methyl Ether",Form I
same,Results of Anti-Solvent Addition Studies,"solvent Acetone, anti-solvent Water",Form V
same,Results of Anti-Solvent Addition Studies,[3],Form II
same,Results of Vapor Diffusion Studies,[3],Form I +
same,Results of Anti-Solvent Addition Studies,[4],Form I
same,Results of Vapor Diffusion Studies,[4],Form VIII
same,Results of Anti-Solvent Addition Studies,[5],Form I
same,Results of Vapor Diffusion Studies,[5],Form I
same,Results of Anti-Solvent Addition Studies,[6],Form IV
same,Results of Vapor Diffusion Studies,[6],Form I +
same,Results of Anti-Solvent Addition Studies,"solvent DCM, anti-solvent DEE",Form II
same,Results of Vapor Diffusion Studies,"solvent DCM, anti-solvent DEE",Form IV
same,Results of Anti-Solvent Addition Studies,[7],Form I
same,Results of Vapor Diffusion Studies,[7],Form I +
same,Results of Anti-Solvent Addition Studies,"solvent DMF, anti-solvent 4-Me-2Pentanone",No XRPD -
same,Results of Anti-Solvent Addition Studies,"solvent DMF, anti-solvent DEE",Form VIII
same,Results of Anti-Solvent Addition Studies,"solvent DMF, anti-solvent T-Butyl Methyl Ether",Form II
same,Results of Anti-Solvent Addition Studies,"solvent DMF, anti-solvent Water",Form II
same,Results of Anti-Solvent Addition Studies,"solvent DMSO, anti-solvent T-Butyl Methyl Ether",Form IV
same,Results of Anti-Solvent Addition Studies,[8],Amorphous
same,Results of Vapor Diffusion Studies,[8],Form IV +
same,Results of Anti-Solvent Addition Studies,[9],Form IV +
same,Results of Vapor Diffusion Studies,[9],Form IV
same,Results of Anti-Solvent Addition Studies,[10],Form IV
same,Results of Vapor Diffusion Studies,[10],Form IV
same,Results of Anti-Solvent Addition Studies,[11],Form I
same,Results of Vapor Diffusion Studies,[11],Form IV
same,Results of Anti-Solvent Addition Studies,[12],No XRPD -
same,Results of Vapor Diffusion Studies,[12],No XRPD -
same,Results of Anti-Solvent Addition Studies,"solvent EtOH, anti-solvent DEE",Form IV
same,Results of Vapor Diffusion Studies,"solvent EtOH, anti-solvent DEE",Form IV
same,Results of Anti-Solvent Addition Studies,[13],Form IV
same,Results of Vapor Diffusion Studies,[13],Form IV
same,Results of Anti-Solvent Addition Studies,[14],Form IV +
same,Results of Vapor Diffusion Studies,[14],Form IV +
same,Results of Anti-Solvent Addition Studies,[15],No XRPD -
same,Results of Vapor Diffusion Studies,[15],Form IV
same,Results of Anti-Solvent Addition Studies,"solvent IPA, anti-solvent DEE",Form IV
same,Results of Vapor Diffusion Studies,"solvent IPA, anti-solvent DEE",Form IV
same,Results of Anti-Solvent Addition Studies,[16],Form IV
same,Results of Vapor Diffusion Studies,[16],Form IV +
same,Results of Anti-Solvent Addition Studies,"solvent IPA, anti-solvent Water",Form IV +
same,Results of Anti-Solvent Addition Studies,[17],No XRPD -
same,Results of Vapor Diffusion Studies,[17],No XRPD -
same,Results of Anti-Solvent Addition Studies,"solvent MeOH, anti-solvent DEE",Form II
same,Results of Anti-Solvent Addition Studies,[18],Form II
same,Results of Vapor Diffusion Studies,[18],Form II
same,Results of Anti-Solvent Addition Studies,[19],Form II
same,Results of Vapor Diffusion Studies,[19],Form II
same,Results of Anti-Solvent Addition Studies,[20],Form I
same,Results of Vapor Diffusion Studies,[20],Form II
same,Results of Anti-Solvent Addition Studies,"solvent THF, anti-solvent DEE",Form II
same,Results of Vapor Diffusion Studies,"solvent THF, anti-solvent DEE",Form IV
same,Results of Anti-Solvent Addition Studies,[21],Form I
same,Results of Vapor Diffusion Studies,[21],Form VIII
same,Results of Anti-Solvent Addition Studies,[22],Form V
same,Results of Vapor Diffusion Studies,[22],Form V
